For 30 molecules, IC50 results are on record in patent publication US11173145B2, “Compounds useful as inhibitors of indoleamine 2,3-dioxygenase and/or tryptophan dioxygenase” (Board of Regents, The University of Texas System, priority 2017, dated 2021).

Structures are written as SMILES.

For the assay, the target named is T1, IDO1 (Homo sapiens, UniProt P14902).
T1 construct: endogenous in cells; host or cells: HeLa cells (ATCC), IFNgamma-induced
T1 sequence (P14902 whole entry): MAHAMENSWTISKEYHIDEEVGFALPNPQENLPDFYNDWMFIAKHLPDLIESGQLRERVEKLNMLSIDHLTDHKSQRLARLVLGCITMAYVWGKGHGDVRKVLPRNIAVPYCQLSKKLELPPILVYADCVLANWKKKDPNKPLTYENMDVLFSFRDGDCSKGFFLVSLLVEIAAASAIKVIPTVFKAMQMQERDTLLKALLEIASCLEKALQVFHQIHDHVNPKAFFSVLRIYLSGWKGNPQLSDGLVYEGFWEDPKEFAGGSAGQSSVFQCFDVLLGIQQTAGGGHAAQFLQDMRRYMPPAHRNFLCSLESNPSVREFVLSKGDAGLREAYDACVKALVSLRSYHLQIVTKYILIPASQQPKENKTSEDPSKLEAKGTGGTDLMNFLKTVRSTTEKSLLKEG
Description: IDO1 cell-based assay (HeLa cells, IFNgamma-induced, N-formylkynurenine/L-tryptophan by RFMS). The conditions noted are these: 10 ng/mL IFNgamma, 24 hours. Summed up: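 HeLa cells stimulated with 10 ng/mL IFNgamma and exposed to compound (0.5% DMSO final) for 24 h at 37 °C. Conditioned media deproteinized, then N-formylkynurenine and L-tryptophan quantified by RapidFire MS with deuterated tryptophan internal standard; IC50 by curve fitting. Viability checked by CellTiter-Glo.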
`CC(NC(=O)c1ccc(Cl)cc1)[C@H]1[C@@H]2C[C@@H](Oc3ncnc4ccc(F)cc34)C[C@@H]21` (stereo partly drawn) [Compound 13, 4-chloro-N-(1-((1R,3s,5S,6r)-3-((6-fluoroquinazolin-4-yl)oxy)bicyclo[3.1.0]hexan-6-yl)ethyl)benzamide] displayed an IC50 of less than 200 nM.
`CCC(NC(=O)c1ccc(Cl)cc1)C1C2CC(OCC3CCOCC3)CC21` [Compound 96, 4-chloro-N-(1-((1R,3s,5S,6r)-3-((tetrahydro-2H-pyran-4-yl)methoxy)bicyclo[3.1.0]hexan-6-yl)propyl)benzamide] returned a 50% inhibitory concentration (IC50) of less than 200 nM.
The molecule `CC(NC(=O)c1ccc(C#N)cc1)[C@H]1[C@@H]2C[C@@H](n3ncc(=O)c4ccccc43)C[C@@H]21` (stereo partly drawn) [Compound 136, 4-cyano-N-(1-((1R,3s,5S,6r)-3-(4-oxocinnolin-1(4H)-yl)bicyclo[3.1.0]hexan-6-yl)ethyl)benzamide] came in with a concentration for half-maximal inhibition (IC50) of 200 to 2000 nM.
The molecule `O=C(NC[C@@H]1[C@H]2C[C@H](n3cnc4cc(F)c(F)cc43)C[C@@H]12)c1cccc(F)c1` [Compound 320, N-(((1R,3s,5S,6r)-3-(5,6-difluoro-1H-benzo[d]imidazol-1-yl)bicyclo[3.1.0]hexan-6-yl)methyl)-3-fluorobenzamide] gave a 50% inhibitory concentration (IC50) of 200 to 2000 nM.
Regarding `COC(=O)C(NC(=O)c1ccc(Cl)cc1)[C@H]1[C@@H]2C[C@@H](n3cc(C4CC4)nn3)C[C@@H]21` (stereo partly drawn) [Compound 169, methyl 2-(4-chlorobenzamido)-2-((1R,3s,5S,6r)-3-(4-cyclopropyl-1H-1,2,3-triazol-1-yl)bicyclo[3.1.0]hexan-6-yl)acetate], the IC50 lay within 200 to 2000 nM.
Take `C[C@@H](C(=O)Nc1ccc(Cl)cc1)[C@H]1[C@@H]2C[C@@H](n3cnc4cc(F)c(F)cc43)C[C@@H]21` [Compound 298, (R)-N-(4-chlorophenyl)-2-((1R,3S,5S,6r)-3-(5,6-difluoro-1H-benzo[d]imidazol-1-yl)bicyclo[3.1.0]hexan-6-yl)propanamide]: the half-maximal inhibitory concentration (IC50) is less than 200 nM.
The molecule `CCC(NC(=O)c1ccc(Cl)cc1)C1[C@H]2CC(Oc3cnnc4ccccc34)C[C@@H]12` (stereo partly drawn) [Compound 46, 4-chloro-N-(1-((1R,3s,5S,6r)-3-(cinnolin-4-yloxy)bicyclo[3.1.0]hexan-6-yl)propyl)benzamide] returned an IC50 of less than 200 nM.
The same measure for `O=C(NC(CCO)[C@H]1[C@@H]2C[C@@H](Oc3cnnc4ccccc34)C[C@@H]21)c1ccc(Cl)cc1` (stereo partly drawn) [Compound 139, 4-chloro-N-(1-((1R,3s,5S,6r)-3-(cinnolin-4-yloxy)bicyclo[3.1.0]hexan-6-yl)-3-hydroxypropyl)benzamide]: 200 to 2000 nM.
The molecule `CCC(NC(=O)c1ccc(Cl)cc1)[C@H]1[C@@H]2C[C@@H](n3cnnc3C3CC3)C[C@@H]21` (stereo partly drawn) [Compound 172, 4-chloro-N-(1-((1R,3s, 5S, 6r)-3-(3-cyclopropyl-4H-1,2,4-triazol-4-yl)bicyclo[3.1.0]hexan-6-yl)propyl)benzamide] came in with a 50% inhibitory concentration (IC50) of 200 to 2000 nM.
Then `CCC(NC(=O)c1ccc(Cl)cc1)[C@H]1[C@@H]2C[C@@H](n3nncc3C(C)(C)O)C[C@@H]21` (stereo partly drawn) [Compound 154, 4-chloro-N-(1-((1R,3s,5S,6r)-3-(5-(2-hydroxypropan-2-yl)-1H-1,2,3-triazol-1-yl)bicyclo[3.1.0]hexan-6-yl)propyl)benzamide], with less than 200 nM.
Take `O=C(NCc1ccc(Cl)cc1)C1[C@H]2CC(Oc3ccnc4ccccc34)C[C@@H]12` (stereo partly drawn) [Compound 16, (1R,5S)-N-(4-chlorobenzyl)-3-(quinolin-4-yloxy)bicyclo[3.1.0]hexane-6-carboxamide]: the IC50 is more than 5000 nM.
`CCC(NC(=O)c1ccc(Cl)cc1)[C@H]1[C@@H]2C[C@@H](Oc3nc(C)ncc3F)C[C@@H]21` (stereo partly drawn) [Compound 52, 4-chloro-N-(1-((1R,3s,5S,6r)-3-((5-fluoro-2-methylpyrimidin-4-yl)oxy)bicyclo[3.1.0]hexan-6-yl)propyl)benzamide]: the IC50 is less than 200 nM.
Regarding `CC[C@@H](NC(=O)Nc1ccc(Cl)c(F)c1)[C@H]1[C@@H]2C[C@@H](n3cnc4cc(F)c(F)cc43)C[C@@H]21` [Compound 349, 1-(4-chloro-3-fluorophenyl)-3-((R)-1-((1R,3S,5S,6r)-3-(5,6-difluoro-1H-benzo[d]imidazol-1-yl)bicyclo[3.1.0]hexan-6-yl)propyl)urea], the IC50 was less than 200 nM.
As to `CCC(NC(=O)c1ccc(Cl)cc1)C1C2CC(Oc3cc(C(F)(F)F)nc4ccc(F)cc34)CC21` [Compound 22, 4-chloro-N-(1-((1R,3s,5S,6r)-3-((6-fluoro-2-(trifluoromethyl)quinolin-4-yl)oxy)bicyclo[3.1.0]hexan-6-yl)propyl)benzamide], the half-maximal inhibitory concentration (IC50) is less than 200 nM.
The same measure for `CC[C@@H](NC(=O)c1ccc(Cl)cc1)[C@H]1[C@@H]2C[C@@H](n3cc(C(=O)O)cn3)C[C@@H]21` [Compound 328, 1-((1R,3S,5S,6r)-6-((R)-1-(4-chlorobenzamido)propyl)bicyclo[3.1.0]hexan-3-yl)-1H-pyrazole-4-carboxylic acid]: 200 to 2000 nM.
The molecule `CCC(NC(=O)c1ccc(Cl)cc1)[C@H]1[C@@H]2C[C@@H](Oc3ncnc4ccc(F)cc34)C[C@@H]21` (stereo partly drawn) [Compound 5, 4-chloro-N-(1-((1R,3s,5S,6r)-3-((6-fluoroquinazolin-4-yl)oxy)bicyclo[3.1.0]hexan-6-yl)propyl)benzamide] registered an IC50 of less than 200 nM.
Consider `CCC(NC(=O)c1ccc(Cl)cc1)[C@H]1[C@@H]2C[C@@H](Oc3ccc4c(Cl)ccnc4c3)C[C@@H]21` (stereo partly drawn) [Compound 57, 4-chloro-N-(1-((1R,3s,5S,6r)-3-((4-chloroquinolin-7-yl)oxy)bicyclo[3.1.0]hexan-6-yl)propyl)benzamide], for which the IC50 was 200 to 2000 nM.
In turn, `O=C(Cc1ccc(Cl)cc1)NC1[C@H]2C[C@H](Oc3ccnc4ccc(F)cc34)C[C@@H]12` (stereo partly drawn) [Compound 7, 2-(4-chlorophenyl)-N-((1R,3s,5S,6r)-3-((6-fluoroquinolin-4-yl)oxy)bicyclo[3.1.0]hexan-6-yl)acetamide] had an IC50 of less than 200 nM.
In turn, `CCC(NC(=O)c1ccc(Cl)cn1)C1[C@H]2CC(Oc3cnnc4ccccc34)C[C@@H]12` (stereo partly drawn) [Compound 77, 5-chloro-N-(1-((1R,5S)-3-(cinnolin-4-yloxy)bicyclo[3.1.0]hexan-6-yl)propyl)picolinamide] returned a half-inhibitory concentration (IC50) of 200 to 2000 nM.
Then `CCC(NC(=O)c1ccc(Cl)cc1)[C@H]1[C@@H]2C[C@@H](Oc3cnnc4ccccc34)C[C@@H]21` (stereo partly drawn) [Compound 138, 4-chloro-N-(1-((1R,3r,5S,6r)-3-(cinnolin-4-yloxy)bicyclo[3.1.0]hexan-6-yl)propyl)benzamide], with less than 200 nM.
Molecule `O=C(NC[C@@H]1[C@H]2CN(c3ncnc4ccc(F)cc34)C[C@@H]12)c1ccc(Cl)cc1` [Compound 280, 4-chloro-N-(((1R,5S,6s)-3-(6-fluoroquinazolin-4-yl)-3-azabicyclo[3.1.0]hexan-6-yl)methyl)benzamide] gave an IC50 of 200 to 2000 nM.
For `CCC(NC(=O)c1ccc(Cl)cc1)[C@H]1[C@@H]2C[C@@H](n3cncn3)C[C@@H]21` (stereo partly drawn) [Compound 81, N-(1-((1R,3s,5S,6r)-3-(1H-1,2,4-triazol-1-yl)bicyclo[3.1.0]hexan-6-yl)propyl)-4-chlorobenzamide], the IC50 lay in the range of 200 to 2000 nM.
Then `CC[C@@H](NC(=O)c1ccc(Cl)cc1)[C@H]1[C@@H]2C[C@@H](Oc3cnnc4ccccc34)C[C@@H]21` [Compound 104, 4-chloro-N-((R)-1-((1R,3S,5S,6r)-3-(cinnolin-4-yloxy)bicyclo[3.1.0]hexan-6-yl)propyl)benzamide], with less than 200 nM; and `CC[C@@H](NC(=O)c1ccc(C#N)cc1)[C@H]1[C@@H]2C[C@@H](n3nnc(C(=O)OC)c3C(=O)OC)C[C@@H]21` [Compound 300, dimethyl 1-((1R,3S,5S,6r)-6-((R)-1-(4-cyanobenzamido)propyl)bicyclo[3.1.0]hexan-3-yl)-1H-1,2,3-triazole-4,5-dicarboxylate], with less than 200 nM.
Then `O=C(NC1C2CN(c3ccnc4ccc(F)cc34)CC21)C(O)c1ccc(Br)cc1` (stereo not drawn) [Compound 111, 2-(4-bromophenyl)-N-(3-(6-fluoroquinolin-4-yl)-3-azabicyclo[3.1.0]hexan-6-yl)-2-hydroxyacetamide], with more than 5000 nM.
Consider `CC(C(=O)Nc1ccc(Cl)cc1)[C@H]1[C@@H]2C[C@@H](Oc3cnnc4ccc(F)cc34)C[C@@H]21` (stereo partly drawn) [Compound 340, N-(4-chlorophenyl)-2-((1R,3s,5S,6r)-3-((6-fluorocinnolin-4-yl)oxy)bicyclo[3.1.0]hexan-6-yl)propanamide], for which the half-inhibitory concentration (IC50) is less than 200 nM.
The same measure for `CCC(NC(=O)c1ccc(Cl)cc1)[C@H]1[C@@H]2C[C@@H](Oc3cnc4ccccc4c3)C[C@@H]21` (stereo partly drawn) [Compound 49, 4-chloro-N-(1-((1R,3s,5S,6r)-3-(quinolin-3-yloxy)bicyclo[3.1.0]hexan-6-yl)propyl)benzamide]: less than 200 nM; for `CCC(NC(=O)c1ccc(Cl)cc1)[C@H]1[C@@H]2C[C@@H](n3nnc4ccccc43)C[C@@H]21` (stereo partly drawn) [Compound 99, N-(1-((1R,3s,5S,6r)-3-(1H-benzo[d][1,2,3]triazol-1-yl)bicyclo[3.1.0]hexan-6-yl)propyl)-4-chlorobenzamide]: less than 200 nM.
In turn, `O=C(O)CC(NC(=O)c1ccc(Cl)cc1)[C@H]1[C@@H]2C[C@@H](Oc3ncnc4ccc(F)cc34)C[C@@H]21` (stereo partly drawn) [Compound 148, 3-(4-chlorobenzamido)-3-((1R,3s,5S,6r)-3-((6-fluoroquinazolin-4-yl)oxy)bicyclo[3.1.0]hexan-6-yl)propanoic acid] registered an IC50 of more than 5000 nM.
`CCC(NC(=O)c1ccc(C#N)cn1)[C@H]1[C@@H]2C[C@@H](n3ncc(=O)c4ccccc43)C[C@@H]21` (stereo partly drawn) [Compound 83, 5-cyano-N-(1-((1R,3s,5S,6r)-3-(4-oxocinnolin-1(4H)-yl)bicyclo[3.1.0]hexan-6-yl)propyl)picolinamide] came in with an IC50 of 200 to 2000 nM.
